# Assay results taken from patent publication US10258612B2, “Mitochondrial lipid permeable iron chelators for treating and preventing ischemia/reperfusion (I/R) injury in the heart following an ischemic event” (Northwestern University, priority 2015, dated 2019).
# Entries after “also recorded” stand apart in the source; their conditions may differ.
# Tests used:
# [1] = test system: cardiac-specific ABCB8 knockout mice; test: Spontaneous cardiomyopathy in cardiac-specific ABCB8 knockout mice; type: in vivo
# Source text: We next took a loss-of-function approach, and studied whether a decrease in mitochondrial iron in cardiac-specific ABCB8 knockout mice, a model of spontaneous cardiomyopathy with mitochondrial iron overload (Ichikawa et al., 2012), protects against cardiac tissue damage. […] Mitochondrial iron in ABCB8 flox/flox (LoxP sequence flanking exon one of both alleles of ABCB8) mice with or without the αMHC-MER-Cre-MER transgene was modulated with BPD or vehicle control for one week before the induction of ABCB8 deletion with tamoxifen. BPD treatment continued until four weeks after the completion of tamoxifen treatment, at which point mitochondrial iron and cardiac function were measured. The effectiveness of Cre-mediated gene excision was confirmed at the protein level (FIG. 15). […] These findings indicate that prevention of mitochondrial iron accumulation through a pharmacological approach delays the development of cardiomyopathy in an animal model of mitochondrial iron accumulation.
# Cardiomyocyte-specific ABCB8 transgenic mice were generated as described previously (Ichikawa et al., 2014) and backcrossed for at least 8 generations. Mice with both alleles of ABCB8 floxed (ABCB8f/f) were crossed to α-MHC MER-Cre-MER mice, and the first generation is back-crossed with ABCB8f/f mice to generate ABCB8f/f mice with or without α-MHC MER-Cre-MER transgene. Tamoxifen-induced Cre translocation and deletion of ABCB8 in the heart was achieved using a previously described protocol (Ichikawa et al., 2012). All animal studies were approved by the Institutional Animal Care and Use Committee at Northwestern University and were performed in accordance with guidelines from the National Institutes of Health.
# Mice were treated with 80 mg/kg BPD (Sigma) in normal saline solution daily or 50 mg/kg DFO (Sigma) in normal saline every other day via intraperitoneal injection. The dose of BPD was chosen based on its ability to modulate cardiac mitochondrial iron, and the dose of DFO was chosen according to previously published studies (Ichikawa et al., 2014). BPD was prepared as a 400 mg/ml stock solution in ethanol and diluted 1:100 in normal saline to working concentration. DFO was prepared as a 250 mg/ml stock in water and diluted 1:100 in normal saline to working concentration.
# Parasternal short- and long-axis views of the heart were obtained using a Vevo 770 high-resolution imaging system with a 30 MHz scan head. 2D and M-mode images were obtained and analyzed. Ejection fraction was calculated from M mode image using Teichholtz equation, and fractional shortening was directly calculated from end-systolic and end-diastolic chamber size from M-mode images.
# Tissue iron was measured colorimetrically by the formation of a complex with bathophenanthroline disulfonate or ferene-S as described previously (Ichikawa et al., 2012; Khechaduri et al., 2013). For qualitative measurement of mitochondrial labile iron, cells were stained with Rhodamine B-[1,10-phenanthrolin-5-yl)-aminocarbonyl]benzyl ester (RPA) (Squarix) and mitoTracker Green (Invitrogen). Images were obtained on a Zeiss AxioObserver.Z1 microscope. Quantitative measurement of labile iron was done according to previously described methods (Cabantchik et al., 1996; Petrat et al., 2002b). Briefly, cells were stained with RPA and mitoTracker Green for mitochondrial labile iron measurement and calcein (Invitrogen) and Hoechst 33342 (Invitrogen) for cytosolic labile iron measurement. Fluorescence intensity was measured using Gemini XS plate reader (Molecular Device) with following excitation emission setting: ex/em 490 nm/520 nm for mitoTracker Green and calcein, 564 nm/601 nm for RPA, and 350 nm/461 nm for Hoechst 33342. After initial measurement, 2 mM of PIH (Abcam) was added to each well and fluorescence signal was measured again. […]
# wild-type mice = test: Cardiac mitochondrial, cytosolic and nuclear non-heme iron in wild-type mice treated with iron chelator; type: in vivo; settings: wild-type mice at baseline, one-week regimen, BPD 80 mg/kg per day, DFO 50 mg/kg every other day
# Procedure: Mice were treated with 80 mg/kg BPD (Sigma) in normal saline solution daily or 50 mg/kg DFO (Sigma) in normal saline every other day via intraperitoneal injection. The dose of BPD was chosen based on its ability to modulate cardiac mitochondrial iron, and the dose of DFO was chosen according to previously published studies (Ichikawa et al., 2014). BPD was prepared as a 400 mg/ml stock solution in ethanol and diluted 1:100 in normal saline to working concentration. DFO was prepared as a 250 mg/ml stock in water and diluted 1:100 in normal saline to working concentration. […]
# Tissue iron was measured colorimetrically by the formation of a complex with bathophenanthroline disulfonate or ferene-S as described previously (Ichikawa et al., 2012; Khechaduri et al., 2013). […] Quantitative measurement of labile iron was done according to previously described methods (Cabantchik et al., 1996; Petrat et al., 2002b). […] Fluorescence intensity was measured using Gemini XS plate reader (Molecular Device) with following excitation emission setting: ex/em 490 nm/520 nm for mitoTracker Green and calcein, 564 nm/601 nm for RPA, and 350 nm/461 nm for Hoechst 33342. After initial measurement, 2 mM of PIH (Abcam) was added to each well and fluorescence signal was measured again. […]
# H9c2 cardiomyoblasts = test: Mitochondrial labile (chelatable) iron by RPA fluorescence in H9c2 cells; type: cell-based, rat
# Procedure: H9c2 cardiomyoblasts were cultured in DMEM (ATCC) supplemented with 10% FBS (Thermo) and Penicillin/Streptomycin (Cellgro). HEK293T cells were cultured in MEM (Cellgro) supplemented with 10% FBS, sodium pyruvate (Cellgro) and Penicillin/Streptomycin. Unless otherwise specified, cells were treated with 200 μM of DFO or 100 μM of BPD for two hours when indicated prior to addition of 600 μM of H2O2 when indicated for 6 hours. RNA isolation and qRT-PCR RNA was isolated using RNA-STAT60 (Tel-Test) according to the manufacturer's instructions, and subjected to DNAse I (Ambion) digestion to remove residual DNA. Purified RNA was then reverse transcribed with Random Hexamer and Oligo dT(16) (Applied Biosystems) and amplified on a 7500 Fast Real-Time PCR system using Fast SYBR Green PCR Master Mix (Applied Biosystems). mRNA levels were calculated based on the difference of threshold Ct values in target gene and average Ct values of 18s, Actb, B2m, and Hprt in the same sample.
# Tissue iron was measured colorimetrically by the formation of a complex with bathophenanthroline disulfonate or ferene-S as described previously (Ichikawa et al., 2012; Khechaduri et al., 2013). […] Quantitative measurement of labile iron was done according to previously described methods (Cabantchik et al., 1996; Petrat et al., 2002b). […]
smiles,measurement,setting,value
"c1ccc(-c2ccccn2)nc1 [BPD, 2,2′-bipyridyl]",cardiac function in ABCB8 knockout mice,"[1]; BPD from 1 week before deletion until 6 weeks after deletion, read at 6 weeks after deletion",preserved cardiac function
same,mitochondrial iron accumulation in ABCB8 KO mice,"[1]; Cre+ (KO) mice, BPD from one week before tamoxifen until four weeks after tamoxifen",prevented the development of iron accumulation
same,mitochondrial iron in Cre- (WT) mice,"[1]; Cre- (WT) mice, same BPD regimen",resulted in a decrease in mitochondrial iron
same,cardiotoxicity of the treatment itself,"[1]; WT mice, same BPD regimen",not cardiotoxic
same,lipid peroxidation products in ABCB8 KO mice,[1]; chelator-treated ABCB8 KO mice,attenuated the increase
same,"cardiac function (ejection fraction, fractional shortening) in ABCB8 KO mice",[1]; four weeks after completion of tamoxifen treatment,preserved cardiac function
same,"expression of Nppa, Nppb and Myh7 in ABCB8 KO mice",[1]; four weeks after tamoxifen,"attenuated expression of Nppa, Nppb and Myh7"
same,cardiac mitochondrial iron,wild-type mice,decreased cardiac mitochondrial iron; also recorded: decreased baseline mitochondrial iron; also recorded: lower mitochondrial iron
same,increase in mitochondrial labile iron after H2O2 treatment,"H9c2 cardiomyoblasts; chelator pretreatment, then 600 μM H2O2 for 6 hours",attenuated
same,chelatable / labile mitochondrial iron,"H9c2 cardiomyoblasts; two-hour pretreatment, 200 μM DFO or 100 μM BPD, no H2O2",decreased mitochondrial labile iron; also recorded: significantly reduced chelatable mitochondrial iron; also recorded: significantly lowered chelatable mitochondrial iron
